Experimental findings from PMC6469291, “2-Nitroimidazole-Furanoside Derivatives for Hypoxia Imaging—Investigation of Nucleoside Transporter Interaction, ^18F-Labeling and Preclinical PET Imaging” (Pharmaceuticals, 2019) are described below.

Each structure is given as a SMILES string. Where two headings read alike, the source gives them in different places.

What all share (type): cell-based
In assay [1] the target is T1, hENT1 (SLC29A1) (Homo sapiens, UniProt Q99808).
T1 construct: expressed in transfected cells; host or cells: Saccharomyces cerevisiae
T1 sequence (Q99808 1-456): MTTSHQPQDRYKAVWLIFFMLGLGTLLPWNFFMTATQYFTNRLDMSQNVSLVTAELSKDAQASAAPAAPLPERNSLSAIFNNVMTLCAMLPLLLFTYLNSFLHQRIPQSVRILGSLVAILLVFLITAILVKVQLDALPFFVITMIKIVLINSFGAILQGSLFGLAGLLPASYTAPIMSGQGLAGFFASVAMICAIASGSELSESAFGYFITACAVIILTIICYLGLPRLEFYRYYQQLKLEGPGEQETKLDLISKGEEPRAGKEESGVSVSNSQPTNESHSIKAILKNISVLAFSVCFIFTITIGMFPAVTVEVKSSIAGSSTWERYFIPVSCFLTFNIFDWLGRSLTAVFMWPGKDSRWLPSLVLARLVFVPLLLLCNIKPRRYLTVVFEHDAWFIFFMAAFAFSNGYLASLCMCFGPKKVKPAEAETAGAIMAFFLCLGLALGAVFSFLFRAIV
Put plainly: Inhibition of [^3H]uridine uptake in yeast cells producing recombinant hENT1. How it is done: (§1) The interaction of 2-nitroimidazole sugars with nucleoside transporters was determined by ability of the 2-nitroimidazole sugars to inhibit [^3H]uridine uptake in yeast cells producing recombinant human nucleoside transporters and results expressed as IC50 values.
(§2) Saccharomyces cerevisiae yeast was separately transformed with plasmids (pYPhENT1, pYPhENT2, pYPhCNT1, pYPhCNT2, or pYPhCNT3) encoding hNTs (hENT1, hENT2, hCNT1, hCNT2, or hCNT3, respectively) as described elsewhere. Uptake of 1 µmol/L [^3H]uridine (Moravek Biochemicals) into yeast was measured as previously described using a semi-automated cell harvester (Micro96 HARVESTER; Skatron Instruments, Tranby, Norway). Yeast was incubated at room temperature with 1 µmol/L [^3H]uridine in yeast growth media (pH 7.4) in the presence or absence (uninhibited controls) of graded concentrations (0–3 mM) of test compounds. The following compounds were used for transporter experiments: FAZA, β-FAZA, α-FAZDR, β-FAZDR. Uridine self-inhibition was used to determine maximum inhibition of mediated transport. Concentration–effect curves were subjected to nonlinear regression analysis using Prism software (version 4.03; GraphPad Software Inc.) to obtain the concentration of test compound that inhibited uridine uptake by 50%, relative to that of untreated cells (IC50 values). Each IC50 value determination was conducted with nine concentrations and four replicates per concentration and experiments were repeated two to three times.

For assay [2], the target named is T2, hCNT3 (SLC28A3) (Homo sapiens, UniProt Q9HAS3).
T2 construct: expressed in transfected cells; host or cells: Saccharomyces cerevisiae
T2 sequence (Q9HAS3 1-691): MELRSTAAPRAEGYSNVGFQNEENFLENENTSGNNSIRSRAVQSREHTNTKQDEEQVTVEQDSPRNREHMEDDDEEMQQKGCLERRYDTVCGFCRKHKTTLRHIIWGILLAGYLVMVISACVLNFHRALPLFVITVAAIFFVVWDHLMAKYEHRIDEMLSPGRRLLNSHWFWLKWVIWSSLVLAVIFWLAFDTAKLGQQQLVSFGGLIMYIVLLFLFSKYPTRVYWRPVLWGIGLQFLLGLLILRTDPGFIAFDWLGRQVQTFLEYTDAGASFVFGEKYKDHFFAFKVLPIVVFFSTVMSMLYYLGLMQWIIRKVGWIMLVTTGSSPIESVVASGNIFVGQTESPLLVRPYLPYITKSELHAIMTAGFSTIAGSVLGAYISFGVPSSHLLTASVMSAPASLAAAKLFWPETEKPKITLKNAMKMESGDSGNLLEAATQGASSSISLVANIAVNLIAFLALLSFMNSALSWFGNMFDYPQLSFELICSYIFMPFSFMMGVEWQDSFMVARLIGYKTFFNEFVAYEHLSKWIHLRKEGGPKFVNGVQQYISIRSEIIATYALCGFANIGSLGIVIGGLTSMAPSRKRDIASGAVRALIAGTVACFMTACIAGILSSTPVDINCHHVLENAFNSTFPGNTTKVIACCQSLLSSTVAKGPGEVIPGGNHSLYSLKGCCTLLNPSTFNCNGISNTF
Put plainly: Inhibition of [^3H]uridine uptake in yeast cells producing recombinant hCNT3. How it is done:
as §1, §2

The target in assay [3] is T3, hCNT1 (SLC28A1) (Homo sapiens, UniProt O00337).
T3 construct: expressed in transfected cells; host or cells: Saccharomyces cerevisiae
T3 sequence (O00337 1-649): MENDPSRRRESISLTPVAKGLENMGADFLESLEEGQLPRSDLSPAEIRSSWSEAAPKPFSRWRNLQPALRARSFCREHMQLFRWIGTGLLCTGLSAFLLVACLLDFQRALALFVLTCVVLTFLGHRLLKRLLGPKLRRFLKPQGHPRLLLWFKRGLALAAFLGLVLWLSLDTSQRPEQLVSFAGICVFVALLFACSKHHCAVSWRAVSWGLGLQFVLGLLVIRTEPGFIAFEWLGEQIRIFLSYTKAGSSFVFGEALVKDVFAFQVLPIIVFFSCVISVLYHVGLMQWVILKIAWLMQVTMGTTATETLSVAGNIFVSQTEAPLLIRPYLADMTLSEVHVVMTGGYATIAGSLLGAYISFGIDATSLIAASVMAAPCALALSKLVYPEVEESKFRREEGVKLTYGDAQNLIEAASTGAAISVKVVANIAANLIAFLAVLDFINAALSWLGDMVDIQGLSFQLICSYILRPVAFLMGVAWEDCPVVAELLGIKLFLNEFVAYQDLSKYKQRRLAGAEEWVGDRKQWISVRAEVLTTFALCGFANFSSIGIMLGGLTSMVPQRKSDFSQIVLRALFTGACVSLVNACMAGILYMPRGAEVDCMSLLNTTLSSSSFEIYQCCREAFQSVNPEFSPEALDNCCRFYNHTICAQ
Description: Inhibition of [^3H]uridine uptake in yeast cells producing recombinant hCNT1. As for the experimental part: as §1, §2

The target of assay [4] is T4, hENT2 (SLC29A2) (Homo sapiens, UniProt Q14542).
T4 construct: expressed in transfected cells; host or cells: Saccharomyces cerevisiae
T4 sequence (Q14542 1-456): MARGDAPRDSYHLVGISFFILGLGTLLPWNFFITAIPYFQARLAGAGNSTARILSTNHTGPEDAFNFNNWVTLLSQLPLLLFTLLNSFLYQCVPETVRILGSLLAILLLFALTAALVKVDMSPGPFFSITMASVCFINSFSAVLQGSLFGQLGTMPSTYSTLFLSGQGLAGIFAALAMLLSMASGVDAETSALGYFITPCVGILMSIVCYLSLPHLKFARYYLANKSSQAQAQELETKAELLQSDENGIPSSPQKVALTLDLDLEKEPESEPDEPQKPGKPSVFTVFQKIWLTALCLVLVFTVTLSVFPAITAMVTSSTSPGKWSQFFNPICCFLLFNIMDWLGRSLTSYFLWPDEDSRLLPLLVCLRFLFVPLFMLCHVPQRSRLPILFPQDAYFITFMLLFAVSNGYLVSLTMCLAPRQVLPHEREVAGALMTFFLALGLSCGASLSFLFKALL
Put plainly: Inhibition of [^3H]uridine uptake in yeast cells producing recombinant hENT2. How it is done:
as §1, §2

The target of assay [5] is T5, hCNT2 (SLC28A2) (Homo sapiens, UniProt O43868).
T5 construct: expressed in transfected cells; host or cells: Saccharomyces cerevisiae
T5 sequence (O43868 1-658): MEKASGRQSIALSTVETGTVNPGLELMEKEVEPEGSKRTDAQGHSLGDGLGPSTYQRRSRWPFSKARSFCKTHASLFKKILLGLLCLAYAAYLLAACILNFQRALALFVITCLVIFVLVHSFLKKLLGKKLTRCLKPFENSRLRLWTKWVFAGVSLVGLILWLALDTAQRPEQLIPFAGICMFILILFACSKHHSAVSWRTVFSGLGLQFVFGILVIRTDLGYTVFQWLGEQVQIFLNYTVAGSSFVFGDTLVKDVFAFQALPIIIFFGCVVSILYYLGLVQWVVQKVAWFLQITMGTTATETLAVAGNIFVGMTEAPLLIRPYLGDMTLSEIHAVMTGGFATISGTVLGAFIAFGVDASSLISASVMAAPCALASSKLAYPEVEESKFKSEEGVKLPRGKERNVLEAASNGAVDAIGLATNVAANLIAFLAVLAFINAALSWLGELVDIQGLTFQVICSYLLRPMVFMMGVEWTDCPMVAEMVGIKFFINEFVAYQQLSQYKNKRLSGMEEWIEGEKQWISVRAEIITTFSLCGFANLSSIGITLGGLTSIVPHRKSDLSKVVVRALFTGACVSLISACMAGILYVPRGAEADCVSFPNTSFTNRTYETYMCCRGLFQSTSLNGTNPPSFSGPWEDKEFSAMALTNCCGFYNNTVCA
Description: Inhibition of [^3H]uridine uptake in yeast cells producing recombinant hCNT2. As for the experimental part:
as §1, §2

[6] abbreviates: inhibition of 1 µmol/L [^3H]uridine transport, yeast, 0–3 mM test compound, mean ± SE, n = 2–3, NI = no interaction.

For `O=[N+]([O-])c1nccn1C1CC(O)C(CF)O1` (stereo not drawn) [α-FAZDR], in assay [1] (setting [6]), the IC50 – broadly, the midpoint of a concentration-inhibition curve – was > 3 mM and the “IC50 hENT1 (SLC29A1)” value was “no interaction”. Moreover, in assay [2] (setting [6]), the IC50 was > 3 mM and the “IC50 hCNT3 (SLC28A3)” value is “no interaction”. Also, in assay [3] (setting [6]), the IC50 was > 3 mM and the “IC50 hCNT1 (SLC28A1)” value is “no interaction”. In addition, in assay [4] (setting [6]), the IC50 was > 3 mM and the “IC50 hENT2 (SLC29A2)” value is on record as “no interaction”. In addition, in assay [5] (setting [6]), the IC50 is > 3 mM and the “IC50 hCNT2 (SLC28A2)” value is reported as “no interaction”.

Consider `O=[N+]([O-])c1nccn1[C@@H]1O[C@H](CF)[C@@H](O)[C@@H]1O` [β-FAZA, 1-(5′-Deoxy-5′-fluoro-β-D-arabinofuranosyl)-2-nitroimidazole], for which the IC50 was 2.07 ± 0.05 mM in assay [1]; 2.31 ± 0.352 mM in assay [2]; > 3 mM in assay [3]; > 3 mM in assay [4]; > 3 mM in assay [5].
